US9802941B2, “Compounds and methods for inhibiting histone demethylases” (Gilead Sciences, Inc., priority 2014, dated 2017)
Like-named read-outs stand apart in the source and are kept apart here.

Legend:
Type in all cases: biochemical
KDM4C (JMJD2C) = biological target: T1, KDM4C (JMJD2C) (Homo sapiens, UniProt Q9H3R0); assay: Histone lysine demethylase AlphaLISA assay, KDM4C
T1 construct: KDM4C; BRIC, Denmark; 1-349; E. coli; host or cells: E. coli
T1 sequence (Q9H3R0 1-349): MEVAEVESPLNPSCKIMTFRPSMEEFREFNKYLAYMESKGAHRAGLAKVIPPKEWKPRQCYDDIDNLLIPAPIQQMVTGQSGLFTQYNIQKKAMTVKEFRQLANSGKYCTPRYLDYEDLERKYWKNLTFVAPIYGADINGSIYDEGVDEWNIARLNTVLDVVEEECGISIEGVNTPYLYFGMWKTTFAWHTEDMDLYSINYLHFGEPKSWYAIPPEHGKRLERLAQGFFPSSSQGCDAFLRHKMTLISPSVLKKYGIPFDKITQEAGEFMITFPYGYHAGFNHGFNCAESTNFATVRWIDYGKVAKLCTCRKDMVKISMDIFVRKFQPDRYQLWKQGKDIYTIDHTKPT
How it was run: (§1)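 AlphaLISA demethylase assay: enzyme in buffer of 50 mM Hepes (pH 7.4-8.0), 0.003-0.01% Tween-20, 0.1% BSA, 5 μM (NH4)2Fe(SO4)2 preincubated 10 min with compound before substrate addition at room temperature. Product detected with acceptor beads then streptavidin donor beads, read after dark incubation.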

KDM2B (FBXL10) = biological target: T2, KDM2B (FBXL10) (Homo sapiens, UniProt Q8NHM5); assay: Histone lysine demethylase AlphaLISA assay, KDM2B; conditions: AlphaLISA, in vitro; read-out: HDME Inhibition KDM2B
T2 construct: KDM2B; BPS,; 1-650; Bac; purchased BPS Bioscience, US; host or cells: baculovirus system
T2 sequence (Q8NHM5 1-650): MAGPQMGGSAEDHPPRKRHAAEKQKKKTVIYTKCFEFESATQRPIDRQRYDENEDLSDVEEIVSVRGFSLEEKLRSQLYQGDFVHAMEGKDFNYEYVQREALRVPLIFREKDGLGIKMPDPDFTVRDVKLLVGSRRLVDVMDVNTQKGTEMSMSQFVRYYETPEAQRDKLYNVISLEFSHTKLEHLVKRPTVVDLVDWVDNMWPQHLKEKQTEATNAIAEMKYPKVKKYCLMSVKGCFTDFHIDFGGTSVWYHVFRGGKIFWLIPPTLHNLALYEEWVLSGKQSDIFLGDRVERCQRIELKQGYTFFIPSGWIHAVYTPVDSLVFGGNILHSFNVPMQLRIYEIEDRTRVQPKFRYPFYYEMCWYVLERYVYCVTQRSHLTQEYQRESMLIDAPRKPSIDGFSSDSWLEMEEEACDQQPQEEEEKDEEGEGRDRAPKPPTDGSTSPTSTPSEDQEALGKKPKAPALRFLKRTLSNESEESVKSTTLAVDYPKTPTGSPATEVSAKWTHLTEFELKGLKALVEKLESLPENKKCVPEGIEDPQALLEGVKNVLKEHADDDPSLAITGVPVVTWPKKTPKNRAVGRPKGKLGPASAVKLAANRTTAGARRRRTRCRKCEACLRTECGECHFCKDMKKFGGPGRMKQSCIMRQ
How it was run: as §1

PHF8 (KDM7) = biological target: T3, PHF8 (KDM7) (Homo sapiens, UniProt Q9UPP1); assay: Histone lysine demethylase AlphaLISA assay, PHF8
T3 construct: KDM7 (PHF8); BRIC; 1-1322; Bac
How it was run: as §1

KDM5B (PLU-1) = biological target: T4, KDM5B (PLU-1) (Homo sapiens, UniProt Q9UGL1); assay: Histone lysine demethylase AlphaLISA assay, KDM5B
T4 construct: BRIC; 1-809; E. coli; host or cells: E. coli
T4 sequence (Q9UGL1 1-809): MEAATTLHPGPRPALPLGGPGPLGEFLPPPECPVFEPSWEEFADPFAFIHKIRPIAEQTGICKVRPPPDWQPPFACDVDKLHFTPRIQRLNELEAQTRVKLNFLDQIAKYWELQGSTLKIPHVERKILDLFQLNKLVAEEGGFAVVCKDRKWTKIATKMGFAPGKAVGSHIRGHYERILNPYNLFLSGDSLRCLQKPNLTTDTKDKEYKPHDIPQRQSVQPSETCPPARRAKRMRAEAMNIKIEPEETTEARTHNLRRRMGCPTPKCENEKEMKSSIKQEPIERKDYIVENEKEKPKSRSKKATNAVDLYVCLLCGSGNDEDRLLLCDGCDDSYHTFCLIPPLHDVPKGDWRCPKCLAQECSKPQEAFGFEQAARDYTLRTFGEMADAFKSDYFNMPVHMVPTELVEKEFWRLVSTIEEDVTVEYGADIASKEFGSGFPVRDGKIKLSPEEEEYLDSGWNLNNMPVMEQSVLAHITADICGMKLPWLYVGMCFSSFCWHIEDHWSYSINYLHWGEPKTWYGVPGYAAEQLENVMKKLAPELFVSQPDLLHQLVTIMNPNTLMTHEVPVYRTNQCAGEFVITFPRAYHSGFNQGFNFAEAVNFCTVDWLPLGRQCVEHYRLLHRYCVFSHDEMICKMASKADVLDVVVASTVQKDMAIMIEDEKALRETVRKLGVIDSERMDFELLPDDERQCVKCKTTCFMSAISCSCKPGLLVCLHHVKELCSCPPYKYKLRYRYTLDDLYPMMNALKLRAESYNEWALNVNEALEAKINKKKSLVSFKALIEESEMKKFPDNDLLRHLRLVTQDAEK
How it was run: as §1

[1] = AlphaLISA assay, read-out: HDME Inhibition KDM4C (IC50)
[2] = AlphaLISA, in vitro, read-out: HDME Inhibition KDM4C
[3] = AlphaLISA assay, read-out: HDME Inhibition PHF8 (IC50)
[4] = AlphaLISA, in vitro, read-out: HDME Inhibition PHF8
[5] = AlphaLISA assay, read-out: HDME Inhibition KDM5B (IC50)
[6] = AlphaLISA, in vitro, read-out: HDME Inhibition KDM5B

T3 sequence (Q9UPP1 37-440 limits assumed): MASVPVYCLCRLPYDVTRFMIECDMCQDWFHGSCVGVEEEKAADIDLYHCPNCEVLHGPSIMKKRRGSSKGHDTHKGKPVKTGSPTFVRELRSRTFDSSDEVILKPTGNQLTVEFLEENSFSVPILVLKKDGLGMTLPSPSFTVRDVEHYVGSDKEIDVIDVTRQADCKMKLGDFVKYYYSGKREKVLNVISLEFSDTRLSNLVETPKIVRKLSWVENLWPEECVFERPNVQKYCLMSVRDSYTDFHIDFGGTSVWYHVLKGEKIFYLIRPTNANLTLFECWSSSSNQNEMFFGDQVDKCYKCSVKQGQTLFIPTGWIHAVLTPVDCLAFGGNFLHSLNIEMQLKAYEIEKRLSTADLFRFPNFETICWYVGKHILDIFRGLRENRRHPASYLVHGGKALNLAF

SMILES	IC50 (KDM4C (JMJD2C); [1]) [µM]	IC50 (KDM4C (JMJD2C); [2]) [µM]	IC50 (KDM2B (FBXL10)) [µM]	IC50 (PHF8 (KDM7); [3]) [µM]	IC50 (PHF8 (KDM7); [4]) [µM]	IC50 (KDM5B (PLU-1); [5]) [µM]	IC50 (KDM5B (PLU-1); [6]) [µM]	IC50 (KDM5B (PLU-1)) [µM]
Cc1ccc(OCCC(C)C)c(CCNCc2cc(C(=O)O)cc(C)n2)c1 [Compound 89, 2-methyl-6-[({2-[5-methyl-2-(3-methylbutoxy)phenyl]ethyl}amino)methyl]pyridine-4-carboxylic acid]	> 10	> 10	2.3	> 10	> 10	> 10	> 10	–
Cc1cc(C(=O)O)cc(CNCc2nccn2Cc2cccc(C#N)c2)n1 [Compound 47, 2-{[({1-[(3-cyanophenyl)methyl]-1H-imidazol-2-yl}methyl)amino]methyl}-6-methylpyridine-4-carboxylic acid]	> 10	> 10	1.26	–	0.391	–	–	4.08
CC#CCC(c1ccc(F)cc1)n1ccnc1CNCc1cc(C(=O)O)cc(C)n1 (stereo not drawn) [Compound 96, 2-{[({1-[1-(4-fluorophenyl)pent-3-yn-1-yl]-1H-imidazol-2-yl}methyl)amino]methyl}-6-methylpyridine-4-carboxylic acid]	> 10	> 10	0.061	–	1.81	> 10	> 10	–
Cc1cc(C(=O)O)cc(CNCc2nnc(CN(C)C)n2Cc2ccc(F)cc2)n1 [Compound 44, 2-{[({5-[(dimethylamino)methyl]-4-[(4-fluorophenyl)methyl]-4H-1,2,4-triazol-3-yl}methyl)amino]methyl}-6-methylpyridine-4-carboxylic acid]	> 10	> 10	2.01	–	2.38	> 10	> 10	–
O=C(O)c1cc(CO)nc(CNCCc2nncn2Cc2ccc(C(F)(F)F)cc2)c1 [Compound 66, 2-(hydroxymethyl)-6-({[2-(4-{[4-(trifluoromethyl)phenyl]methyl}-4H-1,2,4-triazol-3-yl)ethyl]amino}methyl)pyridine-4-carboxylic acid]	> 10	> 10	5.77	> 10	> 10	–	0.943	–
CCOc1ccc(CC(C)C)c(CNCc2cc(C(=O)O)cc(CO)n2)n1 [Compound 101, 2-[({[6-ethoxy-3-(2-methylpropyl)pyridin-2-yl]methyl}amino)methyl]-6-(hydroxymethyl)pyridine-4-carboxylic acid]	> 10	> 10	0.105	–	1.33	–	6.11	–
Cc1nnc(CNCc2cc(C(=O)O)cc(CO)n2)n1Cc1ccc(F)cc1 [Compound 72, 2-{[({4-[(4-fluorophenyl)methyl]-5-methyl-4H-1,2,4-triazol-3-yl}methyl)amino]methyl}-6-(hydroxymethyl)pyridine-4-carboxylic acid]	> 10	> 10	0.283	–	0.529	> 10	> 10	–
COc1ccc(CC(C)C)c(CNCc2cc(C(=O)O)cc(CO)n2)n1 [Compound 84, 2-(hydroxymethyl)-6-[({[6-methoxy-3-(2-methylpropyl)pyridin-2-yl]methyl}amino)methyl]pyridine-4-carboxylic acid]	> 10	> 10	0.251	–	0.673	–	6.2	–
CCc1cnc(CNCc2cc(C(=O)O)cc(C)n2)n1CCc1ccccc1 [Compound 54, 2-[({[5-ethyl-1-(2-phenylethyl)-1H-imidazol-2-yl]methyl}amino)methyl]-6-methylpyridine-4-carboxylic acid]	> 10	> 10	1.14	–	1.19	> 10	> 10	–
Cc1cc(OCc2ccccc2)c(CCNCc2cc(C(=O)O)cc(CO)n2)nn1 [Compound 87, 2-[({2-[4-(benzyloxy)-6-methylpyridazin-3-yl]ethyl}amino)methyl]-6-(hydroxymethyl)pyridine-4-carboxylic acid]	> 10	> 10	1.7	–	2.3	> 10	> 10	–
O=C(O)c1cc(CO)nc(CNCc2nncn2CCCc2ccccc2)c1 [Compound 78, 2-(hydroxymethyl)-6-[({[4-(3-phenylpropyl)-4H-1,2,4-triazol-3-yl]methyl}amino)methyl]pyridine-4-carboxylic acid]	> 10	> 10	0.34	–	1.14	–	–	0.641
Cc1cc(C(=O)O)cc(CNCc2ncc(C(C)O)n2Cc2ccc(F)cc2)n1 (stereo not drawn) [Compound 63, 2-{[({1-[(4-fluorophenyl)methyl]-5-(1-hydroxyethyl)-1H-imidazol-2-yl}methyl)amino]methyl}-6-methylpyridine-4-carboxylic acid]	> 10	> 10	0.333	–	1.4	> 10	> 10	–
Cc1cc(C(=O)O)cc(CNCc2nncn2CCc2cc(Cl)cc(Cl)c2)n1 [Compound 51, 2-{[({4-[2-(3,5-dichlorophenyl)ethyl]-4H-1,2,4-triazol-3-yl}methyl)amino]methyl}-6-methylpyridine-4-carboxylic acid]	> 10	> 10	2.83	–	3.88	> 10	> 10	–
Cc1nc(CNCc2cc(C(=O)O)cc(CO)n2)n(Cc2ccc(F)cc2)c1C [Compound 83, 2-{[({1-[(4-fluorophenyl)methyl]-4,5-dimethyl-1H-imidazol-2-yl}methyl)amino]methyl}-6-(hydroxymethyl)pyridine-4-carboxylic acid]	> 10	> 10	1.53	–	4.95	–	–	0.755
O=C(O)c1cc(CO)nc(CNCc2nc(CO)cn2Cc2ccc(F)cc2)c1 [Compound 88, 2-{[({1-[(4-fluorophenyl)methyl]-4-(hydroxymethyl)-1H-imidazol-2-yl}methyl}amino]methyl}-6-(hydroxymethyl)pyridine-4-carboxylic acid]	–	3.47	0.585	–	1.27	–	–	0.246
